Reference: patent US12595253B2, “Benzamides of pyrazolylamino-pyrimidinyl derivatives, and compositions and methods thereof” (LYNK PHARMACEUTICALS CO. LTD., priority 2019, dated 2026)

Columns and labels:
JAK1 = molecular target: T1, JAK1 (Homo sapiens, UniProt P23458); test: JAK1 microfluidic kinase assay (Caliper EZ Reader II, FAM labeled peptide substrate); type: biochemical; settings: IC50 JAK1 (5 nM) (1 m MATP), JAK1 5 nM, 1 mM ATP
T1 construct: purchased Carna Biosciences
How it was run: (§1)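 Activity measured in 50 mM HEPES, 0.01% Brij35, 10 mM MgCl2, 2 mM DTT by microfluidic separation of phosphorylated FAM peptide. Enzyme conditions set for 10% substrate conversion.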

JAK2 = molecular target: T2, JAK2 (Homo sapiens, UniProt O60674); test: JAK2 microfluidic kinase assay (Caliper EZ Reader II, FAM labeled peptide substrate); type: biochemical; settings: IC50 JAK2 ([…]) (1 mM ATP), 1 mM ATP
T2 construct: purchased Carna Biosciences
T2 sequence (O60674 whole entry): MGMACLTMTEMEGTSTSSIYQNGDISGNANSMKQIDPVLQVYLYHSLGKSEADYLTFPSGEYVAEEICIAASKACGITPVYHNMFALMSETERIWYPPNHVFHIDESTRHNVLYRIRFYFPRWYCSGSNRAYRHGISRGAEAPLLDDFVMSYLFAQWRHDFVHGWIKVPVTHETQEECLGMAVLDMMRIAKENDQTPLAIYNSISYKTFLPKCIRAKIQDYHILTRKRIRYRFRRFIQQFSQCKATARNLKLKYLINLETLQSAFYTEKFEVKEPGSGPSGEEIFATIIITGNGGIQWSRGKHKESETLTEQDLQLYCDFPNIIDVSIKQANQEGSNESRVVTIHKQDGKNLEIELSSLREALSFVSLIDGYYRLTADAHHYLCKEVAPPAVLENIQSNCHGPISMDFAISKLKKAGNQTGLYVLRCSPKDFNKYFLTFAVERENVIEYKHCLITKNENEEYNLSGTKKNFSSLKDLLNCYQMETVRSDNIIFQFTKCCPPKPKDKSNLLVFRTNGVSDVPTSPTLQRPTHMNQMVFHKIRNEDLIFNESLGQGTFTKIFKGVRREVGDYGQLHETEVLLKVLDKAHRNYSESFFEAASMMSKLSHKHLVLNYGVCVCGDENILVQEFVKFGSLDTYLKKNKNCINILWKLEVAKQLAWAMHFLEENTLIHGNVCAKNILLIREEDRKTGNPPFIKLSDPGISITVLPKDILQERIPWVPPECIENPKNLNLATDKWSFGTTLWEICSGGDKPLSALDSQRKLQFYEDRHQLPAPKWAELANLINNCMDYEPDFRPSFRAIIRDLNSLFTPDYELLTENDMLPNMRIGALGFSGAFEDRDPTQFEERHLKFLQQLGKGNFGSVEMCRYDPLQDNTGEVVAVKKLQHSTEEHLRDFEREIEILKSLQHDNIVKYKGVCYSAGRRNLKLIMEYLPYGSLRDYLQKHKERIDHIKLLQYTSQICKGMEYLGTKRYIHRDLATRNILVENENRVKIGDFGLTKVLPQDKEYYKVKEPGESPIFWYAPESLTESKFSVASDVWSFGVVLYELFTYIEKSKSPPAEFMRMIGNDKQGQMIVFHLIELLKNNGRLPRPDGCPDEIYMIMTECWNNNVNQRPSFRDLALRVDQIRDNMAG
How it was run: as §1

[1] = Liver microsomes study, Phase I stability (RLM); type: in vitro ADME, rat; settings: pH 7.4
Description: (§2) Commercially available liver microsomes (MsLM vendor: XENOTECH; RLM, DLM, MkL, HLM vendor: Corning) were used for study the Phase I stability of test articles. […] The reaction was initiated by addition of 80 μL of the NADPH regenerating system to 320 µL of each incubation mixture per time point. […] The 0-minute samples were prepared by addition of an 80 μL aliquot of each incubation mixture to 400 μL quench reagent to precipitate proteins. And then a 20 μL aliquot of the NADPH regenerating system was added. At 10, 30, and 90 minutes, the reaction will be stopped by the addition of cold acetonitrile solution containing tolbutamide and propanolol served as internal standard. The samples taken at all time points were centrifuged at 4000×g for 15 minutes. 80 μL of supernatant are taken into 96-well assay plates pre-added with 160 μL ultrapure water, and then analyzed by LC/MS/MS(Shimadzu LC30AD & API4000/API5000)). Concentrations of test articles, control compounds in the samples were determined by using LC/MS/MS) method. Plotting of the chromatograms and peak area integrations are carried out by Analyst (AB Sciex).
(§3) In the determination of the in vitro elimination constant, ke, of the control compounds, the analyte/internal standard peak area ratios will be converted to percentage remaining (% Remaining) with the following equation: […]
(§4) The slope was measured by the natural logarithm of the percentage of the residual compound and time, T½ and CLint were calculated according to the following formulas, V/M was equal to the 1/concentration of protein.

[2] = Liver microsomes study, Phase I stability (HLM); type: in vitro ADME, human; settings: pH 7.4
Description: as §2, §3, §4

JAK2V617F = molecular target: T3, JAK2V617F (Homo sapiens, UniProt O60674, V617F); test: JAK2V617F microfluidic kinase assay (Caliper EZ Reader II, FAM labeled peptide substrate); type: biochemical; settings: JAK2V617F 2.5 nM, 1 mM ATP
T3 construct: purchased Carna Biosciences
T3 sequence (O60674 whole entry V617F): as the sequence (O60674 whole entry) above, with V617F counted along it
How it was run: as §1

TYK2 = molecular target: T4, TYK2 (Homo sapiens, UniProt P29597); test: TYK2 microfluidic kinase assay (Caliper EZ Reader II, FAM labeled peptide substrate); type: biochemical; settings: IC50 TYK2 ([…]) (1 mM ATP), TYK2 […], 1 mM ATP
T4 construct: purchased Carna Biosciences
T4 sequence (P29597 whole entry): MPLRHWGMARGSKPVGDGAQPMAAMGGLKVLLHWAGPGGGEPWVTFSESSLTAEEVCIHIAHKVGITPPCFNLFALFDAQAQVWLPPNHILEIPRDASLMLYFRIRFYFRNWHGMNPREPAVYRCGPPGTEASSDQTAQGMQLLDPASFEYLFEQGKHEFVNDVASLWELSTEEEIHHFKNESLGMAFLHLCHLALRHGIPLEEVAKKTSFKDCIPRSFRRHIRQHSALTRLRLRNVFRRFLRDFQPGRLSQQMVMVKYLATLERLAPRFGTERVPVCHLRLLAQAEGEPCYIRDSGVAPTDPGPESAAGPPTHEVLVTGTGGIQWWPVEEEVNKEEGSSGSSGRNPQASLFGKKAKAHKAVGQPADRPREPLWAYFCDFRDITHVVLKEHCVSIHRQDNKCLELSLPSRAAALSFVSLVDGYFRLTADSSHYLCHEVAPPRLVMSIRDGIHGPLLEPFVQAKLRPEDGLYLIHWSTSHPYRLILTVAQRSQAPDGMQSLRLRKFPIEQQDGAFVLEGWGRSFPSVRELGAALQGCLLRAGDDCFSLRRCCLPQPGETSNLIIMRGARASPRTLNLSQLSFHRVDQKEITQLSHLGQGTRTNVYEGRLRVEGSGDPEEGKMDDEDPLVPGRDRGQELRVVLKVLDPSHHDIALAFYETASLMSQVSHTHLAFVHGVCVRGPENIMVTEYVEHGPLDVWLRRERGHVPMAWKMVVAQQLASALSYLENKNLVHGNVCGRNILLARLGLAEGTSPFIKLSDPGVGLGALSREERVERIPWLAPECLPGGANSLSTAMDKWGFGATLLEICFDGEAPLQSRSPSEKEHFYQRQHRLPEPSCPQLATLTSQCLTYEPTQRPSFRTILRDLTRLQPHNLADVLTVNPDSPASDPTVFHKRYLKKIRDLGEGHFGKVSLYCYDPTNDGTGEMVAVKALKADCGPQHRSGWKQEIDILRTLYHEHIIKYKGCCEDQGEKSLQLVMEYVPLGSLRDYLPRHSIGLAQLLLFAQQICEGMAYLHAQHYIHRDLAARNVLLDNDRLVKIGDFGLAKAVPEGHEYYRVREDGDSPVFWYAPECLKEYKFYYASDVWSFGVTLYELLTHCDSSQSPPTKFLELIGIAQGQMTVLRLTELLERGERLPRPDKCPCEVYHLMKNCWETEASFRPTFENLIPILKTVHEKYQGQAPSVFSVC
How it was run: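 Human JAK enzymes in 50 mM HEPES, 0.01% Brij35, 10 mM MgCl2, 2 mM DTT, tuned to 10% conversion of FAM-peptide; compounds (3-fold dilutions, top 5 μM, 1% DMSO) pre-incubated 10 min. Reaction times: JAK1 120 min, JAK2 20 min, JAK2V617F 30 min, TYK2 10 min; EDTA stop, microfluidic conversion read, IC50 from % inhibition curves.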

[3] = rat liver microsomes 0.5 mg/mL, 1 μM test article, read-out: RLM Clint
[4] = human liver microsomes 0.5 mg/mL, 1 μM test article, read-out: HLM Clint

T1 sequence (P23458 whole entry): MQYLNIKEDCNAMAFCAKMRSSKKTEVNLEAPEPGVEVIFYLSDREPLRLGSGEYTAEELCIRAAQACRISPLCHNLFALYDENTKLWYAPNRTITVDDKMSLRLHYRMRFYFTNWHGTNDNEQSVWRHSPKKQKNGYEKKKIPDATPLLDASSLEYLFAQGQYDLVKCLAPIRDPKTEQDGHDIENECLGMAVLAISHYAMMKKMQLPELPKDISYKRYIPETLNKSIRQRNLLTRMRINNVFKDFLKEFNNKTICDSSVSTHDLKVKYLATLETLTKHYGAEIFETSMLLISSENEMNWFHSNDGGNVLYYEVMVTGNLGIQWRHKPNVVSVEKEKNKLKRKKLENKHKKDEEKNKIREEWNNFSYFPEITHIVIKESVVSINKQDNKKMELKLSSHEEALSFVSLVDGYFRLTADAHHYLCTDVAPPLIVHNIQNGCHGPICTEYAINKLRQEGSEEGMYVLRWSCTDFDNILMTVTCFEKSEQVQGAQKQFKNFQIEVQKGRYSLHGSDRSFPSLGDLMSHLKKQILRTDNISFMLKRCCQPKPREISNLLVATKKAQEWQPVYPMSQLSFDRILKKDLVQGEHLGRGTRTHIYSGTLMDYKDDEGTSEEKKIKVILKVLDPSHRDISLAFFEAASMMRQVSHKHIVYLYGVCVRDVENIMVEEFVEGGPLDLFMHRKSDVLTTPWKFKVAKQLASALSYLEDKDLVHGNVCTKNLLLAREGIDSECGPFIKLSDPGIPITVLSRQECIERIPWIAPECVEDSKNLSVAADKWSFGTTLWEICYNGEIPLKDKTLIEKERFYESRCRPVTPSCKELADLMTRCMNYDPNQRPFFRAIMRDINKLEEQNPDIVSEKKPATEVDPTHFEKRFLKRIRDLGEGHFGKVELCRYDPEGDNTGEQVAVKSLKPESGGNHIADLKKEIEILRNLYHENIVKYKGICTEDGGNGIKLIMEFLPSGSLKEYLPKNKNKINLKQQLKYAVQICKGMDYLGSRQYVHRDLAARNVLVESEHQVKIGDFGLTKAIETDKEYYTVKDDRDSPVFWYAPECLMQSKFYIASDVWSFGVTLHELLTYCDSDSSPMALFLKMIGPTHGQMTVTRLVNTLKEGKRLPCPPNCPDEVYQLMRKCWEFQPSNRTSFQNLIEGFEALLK

Structure (SMILES)	IC50 (JAK1)	IC50 (JAK2)	microsomal CLint at 1 μM ([1]; rat, microsomes)	microsomal CLint at 1 μM ([2]; human, microsomes)	IC50 (JAK2V617F)	microsomal CLint at 1 μM [1, 3]	microsomal CLint at 1 μM [2, 4]	IC50 (TYK2)
Cc1cnc(Nc2cnn(C3CC4CCC(C3)N4CC(F)(F)F)c2)nc1-c1ccc(C(=O)NCC#N)cc1 [Example 134, N-(cyanomethyl)-4-(5-methyl-2-((1-((1R,3s,5S)-8-(2,2,2-trifluoroethyl)-8-azabicyclo[3.2.1]octan-3-yl)-1H-pyrazol-4-yl)amino)pyrimidin-4-yl)benzamide]	0.0224 µM	0.0107 µM	1950 µL/min/mg	1190 µL/min/mg				
CC(C)(C#N)CNC(=O)c1ccc(-c2nc(Nc3cnn(C4CC4)c3)ncc2Cl)cc1 [Example 123, 4-(5-Chloro-2-((1-cyclopropyl-1H-pyrazol-4-yl)amino)pyrimidin-4-yl)-N-(2-cyano-2-methylpropyl)benzamide]	0.019 µM	0.013 µM			0.056 µM	77.3 µL/min/mg	35.2 µL/min/mg	
Cc1cnc(Nc2cnn(C3CCN(C(=O)C(C)(C)O)CC3)c2)nc1-c1ccc(C(=O)NCC#N)cc1 [Example 51, N-(cyanomethyl)-4-(2-((1-(1-(2-hydroxy-2-methylpropanoyl)piperidin-4-yl)-1H-pyrazol-4-yl)amino)-5-methylpyrimidin-4-yl)benzamide]	0.0087 µM				0.00051 µM	17.1 µL/min/mg	33.9 µL/min/mg	
Cc1cnc(Nc2cnn(C3C[C@@H](C)O[C@@H](C)C3)c2)nc1-c1ccc(C(=O)NCC#N)cc1 (stereo partly drawn) [Example 68]	0.0304 µM				0.00907 µM	228 µL/min/mg	141 µL/min/mg	
Cc1cnc(Nc2cnn(C3CCN(C(=O)C4CC4)CC3)c2)nc1-c1ccc(C(=O)NCC2(C#N)CC2)cc1 [Example 158, N-((1-cyanocyclopropyl)methyl)-4-(2-((1-(1-(cyclopropanecarbonyl)piperidin-4-yl)-1H-pyrazol-4-yl)amino)-5-methylpyrimidin-4-yl)benzamide]	0.0239 µM	0.00088 µM			0.0282 µM	124 µL/min/mg	142 µL/min/mg	
Cc1cnc(Nc2cnn([C@H]3CC[C@H](C#N)CC3)c2)nc1-c1ccc(C(=O)N[C@@H](C)C#N)cc1 [Example 154, 4-(2-((1-(Trans-4-cyanocyclohexyl)-1H-pyrazol-4-yl)amino)-5-methylpyrimidin-4-yl)-N—((S)-1-cyanoethyl)benzamide]	0.012 µM				0.0045 µM	69 µL/min/mg	14.7 µL/min/mg	
Cc1cnc(Nc2cnn(C3C[C@H]4CC[C@@H](C3)O4)c2)nc1-c1ccc(C(=O)N[C@@H](C)C#N)cc1 (stereo partly drawn) [Example 70, 4-(2-((1-((1R,5S)-8-oxabicyclo[3.2.1]octan-3-yl)-1H-pyrazol-4-yl)amino)-5-methylpyrimidin-4-yl)-N—((S)-1-cyanoethyl)benzamide]	0.0124 µM				0.00722 µM	32.5 µL/min/mg	42.9 µL/min/mg	
CN1CCC(n2cc(Nc3ncc(Cl)c(-c4ccc(C(=O)NCC#N)cc4)n3)cn2)CC1 [Example 44, 4-(5-Chloro-2-((1-(1-methylpiperidin-4-yl)-1H-pyrazol-4-yl)amino)pyrimidin-4-yl)-N-(cyanomethyl)benzamide]	0.00655 µM	0.00054 µM			0.00511 µM		19.5 µL/min/mg	0.0787 µM
COCCn1cc(Nc2ncc(Cl)c(-c3ccc(C(=O)N[C@@H](C)C#N)cc3)n2)cn1 [Example 177, (S)-4-(5-chloro-2-((1-(2-methoxyethyl)-1H-pyrazol-4-yl)amino)pyrimidin-4-yl)-N-(1-cyanoethyl)benzamide]	0.0135 µM	0.00274 µM			0.0439 µM		38.7 µL/min/mg	
Cc1cnc(Nc2cnn(C3CCN(C(=O)C45CC(C4)C5)CC3)c2)nc1-c1ccc(C(=O)NCC#N)cc1 [Example 114, 4-(2-((1-(1-(Bicyclo[1.1.1]pentane-1-carbonyl)piperidin-4-yl)-1H-pyrazol-4-yl)amino)-5-methylpyrimidin-4-yl)-N-(cyanomethyl)benzamide]	0.0125 µM					93.6 µL/min/mg	204 µL/min/mg	
Cc1cnc(Nc2cnn(C3CCOCC3)c2)nc1-c1ccc(C(=O)N[C@@H](C)C#N)cc1 [Example 144, (S)—N-(1-cyanoethyl)-4-(5-methyl-2-((1-(tetrahydro-2H-pyran-4-yl)-1H-pyrazol-4-yl)amino)pyrimidin-4-yl)benzamide]	0.0139 µM				0.0301 µM	38.6 µL/min/mg	19.4 µL/min/mg	
Cc1cnc(Nc2cnn(C3CC3)c2)nc1-c1ccc(C(=O)NCC#N)nc1 [Example 83, N-(cyanomethyl)-5-(2-((1-cyclopropyl-1H-pyrazol-4-yl)amino)-5-methylpyrimidin-4-yl)picolinamide]	0.02 µM	0.0309 µM			0.0678 µM	26.1 µL/min/mg		0.0452 µM
N#CCNC(=O)c1ccc(-c2nc(Nc3cnn(C4CC4)c3)ncc2Cl)cn1 [Example 120, 5-(5-Chloro-2-((1-cyclopropyl-1H-pyrazol-4-yl)amino)pyrimidin-4-yl)-N-(cyanomethyl)picolinamide]	0.0398 µM				0.131 µM	47.5 µL/min/mg	16.2 µL/min/mg	
C[C@@H](C#N)NC(=O)c1ccc(-c2nc(Nc3cnn(C4CC4)c3)ncc2C(F)F)cc1F [Example 138, (S)—N-(1-cyanoethyl)-4-(2-((1-cyclopropyl-1H-pyrazol-4-yl)amino)-5-(difluoromethyl)pyrimidin-4-yl)-2-fluorobenzamide]	0.432 µM	0.688 µM				8.5 µL/min/mg	10.7 µL/min/mg	
Cc1cnc(Nc2cnn(C3CCOCC3)c2)nc1-c1ccc(C(=O)N[C@@H](C)C(F)(F)F)cc1 [Example 75, (S)-4-(5-Methyl-2-((1-(tetrahydro-2H-pyran-4-yl)-1H-pyrazol-4-yl)amino)pyrimidin-4-yl)-N-(1,1,1-trifluoropropan-2-yl)benzamide]	0.0129 µM				0.00891 µM		22.6 µL/min/mg	
CC(C)(C)C(=O)N1CCC(n2cc(Nc3ncc(Cl)c(-c4ccc(C(=O)NCC#N)cc4)n3)cn2)CC1 [Example 98, 4-(5-Chloro-2-((1-(1-pivaloylpiperidin-4-yl)-1H-pyrazol-4-yl)amino)pyrimidin-4-yl)-N-(cyanomethyl)benzamide]	0.0178 µM				0.0013 µM		147 µL/min/mg	
Cc1cnc(Nc2cnn(C3CCN(C(=O)C4CC4)CC3)c2)nc1-c1ccc(C(=O)NCC#N)nc1 [Example 150, N-(cyanomethyl)-5-(2-((1-(1-(cyclopropanecarbonyl)piperidin-4-yl)-1H-pyrazol-4-yl)amino)-5-methylpyrimidin-4-yl)picolinamide]	0.0235 µM				0.00419 µM	80.8 µL/min/mg	56.4 µL/min/mg	
N#CC1(CNC(=O)c2ccc(-c3nc(Nc4cnn(C5CC5)c4)ncc3Cl)cc2)CC1 [Example 60, 4-(5-Chloro-2-((1-cyclopropyl-1H-pyrazol-4-yl)amino)pyrimidin-4-yl)-N-((1-cyanocyclopropyl)methyl)benzamide]	0.0153 µM	0.0306 µM				40.8 µL/min/mg	24.6 µL/min/mg	
N#CC1(CNC(=O)c2ccc(-c3nc(Nc4cnn(C5CCOCC5)c4)ncc3Cl)cc2)CC1 [Example 78, 4-(5-Chloro-2-((1-(tetrahydro-2H-pyran-4-yl)-1H-pyrazol-4-yl)amino)pyrimidin-4-yl)-N-((1-cyanocyclopropyl)methyl)benzamide]	0.0378 µM				0.0453 µM	47.2 µL/min/mg	30 µL/min/mg	
Cc1cnc(Nc2cnn(C3CCN(C)CC3)c2)nc1-c1ccc(C(=O)N[C@H](C)C#N)cc1 [Example 62, (R)—N-(1-cyanoethyl)-4-(5-methyl-2-((1-(1-methylpiperidin-4-yl)-1H-pyrazol-4-yl)amino)pyrimidin-4-yl)benzamide]	0.0231 µM	0.071 µM					10.6 µL/min/mg	0.215 µM
